# Where two headings read alike, the source gives them in different places.
# Key:
# MRSA ATCC 33592 = test: MIC, broth microdilution; assay type: cell-based; settings: Staphylococcus aureus
# In short: (§1)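 Visual read-out: the minimum inhibitory concentration is the lowest concentration lacking bacterial growth following incubation of ≥20 h at 37° C. Media varied by organism (CA-MHB, TSB, or BHI for E. faecium). Bactericidal concentration came from subculturing clear wells onto Tryptic Soy Agar for ≥18 h.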
# E. faecalis = test: MIC (Table 5, strain not given); assay type: cell-based; settings: Enterococcus faecalis; E. faecalis (Table 5)
# In short: as §1
# L. monocytogenes = test: MIC (Table 5, strain not given); assay type: cell-based; settings: Listeria monocytogenes; L. monocytogenes (Table 5)
# In short: as §1
# S. aureus = test: MIC (Table 5, strain not given); assay type: cell-based; settings: Staphylococcus aureus; S. aureus (Table 5)
# In short: as §1
# VRE = test: MIC (Table 5, strain not given); assay type: cell-based; settings: Enterococcus; VRE (Table 5)
# In short: as §1
# [1] = tested on: Clostridium difficile ATCC 43255; test: Clostridium difficile inhibition analysis; assay type: cell-based; settings: for Antibacterial activity: Table 7, C. difficile ATCC 43255
# [2] = tested on: C. difficile NR-32883 (P2); test: Clostridium difficile inhibition analysis; assay type: cell-based; settings: for Antibacterial activity: Table 7, C. difficile NR-32883 (P2)
# [3] = tested on: C. difficile NR-32891 (P13); test: Clostridium difficile inhibition analysis; assay type: cell-based; settings: for Antibacterial activity: Table 7, C. difficile NR-32891 (P13)
# [4] = tested on: C. difficile NR-32895 (P19); test: Clostridium difficile inhibition analysis; assay type: cell-based; settings: for Antibacterial activity: Table 7, C. difficile NR-32895 (P19)
# [5] = tested on: C. difficile NR-32904 (P30); test: Clostridium difficile inhibition analysis; assay type: cell-based; settings: for Antibacterial activity: Table 7, C. difficile NR-32904 (P30)
# [6] = tested on: C. difficile NR-13432 (isolate 6); test: Clostridium difficile inhibition analysis; assay type: cell-based; settings: for Antibacterial activity: Table 7, C. difficile NR-13432 (isolate 6)
# [7] = tested on: C. difficile NR-13435 (isolate 9); test: Clostridium difficile inhibition analysis; assay type: cell-based; settings: for Antibacterial activity: Table 7, C. difficile NR-13435 (isolate 9)
# MRSA NRS119 = test: MIC and MBC; assay type: cell-based, Staphylococcus aureus
# Experimental: (§2) Bacteria were cultured in cation-adjusted Mueller Hinton Broth (for strains in Tables 1 and 4) or Brain Heart Infusion broth (for Enterococcus faecium) or Tryptic Soy Broth (all other bacteria) in a 96-well plate at 37° C. for at least 20 hours. The MIC was classified as the lowest concentration where no visual growth of bacteria was observed. The minimum bactericidal concentration (MBC) was tested by spotting 4 μL from wells with no growth onto Tryptic Soy Agar (TSA) plates. Plates were incubated at 37° C. for at least 18 hours before recording the MBC.
# VISA NRS1 = test: MIC and MBC; assay type: cell-based, S. aureus; settings: Staphylococcus aureus
# Experimental: as §2
# VRSA VRS12 = test: MIC and MBC; assay type: cell-based, S. aureus
# Experimental: as §2
# E. faecium ATCC = test: MIC and MBC; assay type: cell-based
# Experimental: as §2
# MRSA NRS123 (USA400) = test: MIC and MBC; assay type: cell-based; settings: Staphylococcus aureus
# Experimental: as §2
# MRSA NRS384 (USA300) = test: MIC and MBC; assay type: cell-based; settings: Staphylococcus aureus
# Experimental: as §2
# MRSA NRS385 (USA500) = test: MIC and MBC; assay type: cell-based; settings: Staphylococcus aureus
# Experimental: as §2
# MRSA NRS386 (USA700) = test: MIC and MBC; assay type: cell-based; settings: Staphylococcus aureus
# Experimental: as §2
# MRSA NRS387 (USA800) = test: MIC and MBC; assay type: cell-based; settings: Staphylococcus aureus
# Experimental: as §2
# Escherichia coli BW25113 = test: MIC against Gram-negative pathogens; assay type: cell-based
# Experimental: as §2
# [8] = tested on: Escherichia coli JW5503-1 (ΔtolC); test: MIC against Gram-negative pathogens (efflux pump knockout); assay type: cell-based
# Experimental: as §2
# MRSA USA300 = test: Time-kill analysis; assay type: cell-based, Staphylococcus aureus
# Experimental: The time-kill analysis was performed as previously described^29. […] Aliquots (100 μL) were collected from each treatment after 0, 2, 4, 8, 12, and 24 hours of incubation at 37° C. and subsequently serially diluted in phosphate-buffered saline (PBS). Bacteria were then transferred to TSA plates and incubated at 37° C. for 18-20 hours before viable CFU/mL was determined.
# E. faecalis ATCC 29212 = test: MIC, broth microdilution; assay type: cell-based; settings: Enterococcus faecalis, ATCC29212
# In short: as §1
# [9] = tested on: L. monocytogenes ATCC 19115; test: MIC, broth microdilution; assay type: cell-based; settings: Listeria monocytogenes, ATCC19115
# In short: as §1
# S. aureus ATCC 25923 = test: MIC, broth microdilution; assay type: cell-based; settings: Staphylococcus aureus, ATCC25923
# In short: as §1
# [10] = tested on: VRE (E. faecalis) ATCC 51575; test: MIC, broth microdilution; assay type: cell-based
# In short: as §1
# [11] = tested on: Clostridium difficile ATCC BAA 1801; test: Clostridium difficile inhibition analysis; assay type: cell-based
# [12] = tested on: Clostridium difficile ATCC 9689; test: Clostridium difficile inhibition analysis; assay type: cell-based; settings: Table 6, ATCC 9689
# [13] = tested on: Acinetobacter baumannii ATCC 19606; test: MIC against Gram-negative pathogens; assay type: cell-based
# Experimental: as §2
# [14] = tested on: Klebsiella pneumoniae BAA-1706; test: MIC against Gram-negative pathogens; assay type: cell-based
# Experimental: as §2
# [15] = tested on: Pseudomonas aeruginosa ATCC 15442; test: MIC against Gram-negative pathogens; assay type: cell-based
# Experimental: as §2
molecule,measurement,setting,value
"C[C@@H]1C[C@H](C)CN(S(=O)(=O)c2ccc(C(=O)Nc3nnc(-c4ccc(C(F)(F)F)cc4)o3)cc2)C1 [HSGN-94, 4-(((3S,5R)-3,5-dimethylpiperidin-1-yl)sulfonyl)-N-(5-(4-(trifluoromethyl)phenyl)-1,3,4-oxadiazol-2-yl)benzamide]",MIC,"MRSA ATCC 33592; MRSA ATCC 33592, read-out: MIC",0.25 µg/mL
same,MIC,E. faecalis,2 µg/mL
same,MIC,L. monocytogenes,0.5 µg/mL
same,MIC,S. aureus,0.25 µg/mL
same,MIC,VRE,1 µg/mL
same,Antibacterial activity,[1],0.06
same,Antibacterial activity,[2],0.06
same,Antibacterial activity,[3],0.125
same,Antibacterial activity,[4],0.06
same,Antibacterial activity,[5],0.125
same,Antibacterial activity,[6],0.06
same,Antibacterial activity,[7],0.06
CC(=O)NC[C@H]1CN(c2ccc(N3CCOCC3)c(F)c2)C(=O)O1 [Linezolid],MIC,MRSA NRS119; MRSA NRS119,inactive
same,MBC,"MRSA NRS119; Staphylococcus aureus, MRSA NRS119, read-out: MBC",32 µg/mL
same,MIC,"MRSA NRS119; Staphylococcus aureus, MRSA NRS119, read-out: MIC",32 µg/mL
same,MBC,"VISA NRS1; VISA NRS1, read-out: MBC",1 µg/mL
same,MIC,"VISA NRS1; VISA NRS1, read-out: MIC",≤ 1 µg/mL
same,MBC,"VRSA VRS12; Staphylococcus aureus, VRSA VRS12, read-out: MBC",32 µg/mL
same,MIC,"VRSA VRS12; Staphylococcus aureus, VRSA VRS12, read-out: MIC",≤ 1 µg/mL
same,MBC,"E. faecium ATCC; Enterococcus faecium, E. faecium ATCC, read-out: MBC",64 µg/mL
same,MIC,"E. faecium ATCC; Enterococcus faecium, E. faecium ATCC, read-out: MIC",≤ 1 µg/mL
same,MBC,"MRSA NRS123 (USA400); MRSA NRS123 (USA400), read-out: MBC",64 µg/mL
same,MIC,"MRSA NRS123 (USA400); MRSA NRS123 (USA400), read-out: MIC",≤ 1 µg/mL
same,MBC,"MRSA NRS384 (USA300); MRSA NRS384 (USA300), read-out: MBC",64 µg/mL
same,MIC,"MRSA NRS384 (USA300); MRSA NRS384 (USA300), read-out: MIC",≤ 1 µg/mL
same,MBC,"MRSA NRS385 (USA500); MRSA NRS385 (USA500), read-out: MBC",2 µg/mL
same,MIC,"MRSA NRS385 (USA500); MRSA NRS385 (USA500), read-out: MIC",≤ 1 µg/mL
same,MBC,"MRSA NRS386 (USA700); MRSA NRS386 (USA700), read-out: MBC",128 µg/mL
same,MIC,"MRSA NRS386 (USA700); MRSA NRS386 (USA700), read-out: MIC",≤ 1 µg/mL
same,MBC,"MRSA NRS387 (USA800); MRSA NRS387 (USA800), read-out: MBC",128 µg/mL
same,MIC,"MRSA NRS387 (USA800); MRSA NRS387 (USA800), read-out: MIC",≤ 1 µg/mL
same,MIC,"Escherichia coli BW25113; Escherichia coli, BW25113",> 128 µg/mL
same,MIC,[8],8 µg/mL
same,reduction in MRSA USA300 (time-kill),"MRSA USA300; 3×MIC, after a 24-hour incubation period",2.16 log10
same,in vitro effect against MRSA USA300,MRSA USA300; time-kill analysis and MBC,bacteriostatic
CC[C@H]1OC(=O)[C@H](C)[C@@H](O[C@H]2C[C@@](C)(OC)[C@@H](O)[C@H](C)O2)[C@H](C)[C@@H](O[C@@H]2O[C@H](C)C[C@H](N(C)C)[C@H]2O)[C@](C)(O)C[C@@H](C)C(=O)[C@H](C)[C@@H](O)[C@]1(C)O [Erythromycin],MIC,"Escherichia coli BW25113; Escherichia coli BW25113 (wild-type), read-out: MIC",32 µg/mL
same,MIC,[8],≤ 1 µg/mL
"CN[C@H](CC(C)C)C(=O)N[C@H]1C(=O)N[C@@H](CC(N)=O)C(=O)N[C@H]2C(=O)N[C@H]3C(=O)N[C@H](C(=O)N[C@H](C(=O)O)c4cc(O)cc(O)c4-c4cc3ccc4O)[C@H](O)c3ccc(c(Cl)c3)Oc3cc2cc(c3O[C@@H]2O[C@H](CO)[C@@H](O)[C@H](O)[C@H]2O[C@H]2C[C@](C)(N)[C@H](O)[C@H](C)O2)Oc2ccc(cc2Cl)[C@H]1O [Vancomycin, reference compound]",MIC,E. faecalis ATCC 29212,2 µg/mL
same,MIC,[9],1 µg/mL
same,MIC,MRSA ATCC 33592,2 µg/mL
same,MIC,S. aureus ATCC 25923,2 µg/mL
same,MIC,[10],> 128 µg/mL
same,MBC,MRSA NRS119; Staphylococcus aureus,≤ 1 µg/mL
same,MIC,MRSA NRS119; Staphylococcus aureus,≤ 1 µg/mL
same,MBC,VISA NRS1,4 µg/mL
same,MIC,VISA NRS1,4 µg/mL
same,MBC,"VRSA VRS12; Staphylococcus aureus, VRSA",> 128 µg/mL
same,MIC,"VRSA VRS12; Staphylococcus aureus, VRSA",> 128 µg/mL
same,MIC,VRSA VRS12; VRSA VRS12,>128 µg/mL
same,MIC,E. faecium ATCC; E. faecium ATCC,>128 µg/mL
same,MBC,E. faecium ATCC; Enterococcus faecium,> 128 µg/mL
same,MIC,E. faecium ATCC; Enterococcus faecium,> 128 µg/mL
same,MBC,MRSA NRS123 (USA400),≤ 1 µg/mL
same,MIC,MRSA NRS123 (USA400),≤ 1 µg/mL
same,MBC,MRSA NRS384 (USA300),≤ 1 µg/mL
same,MIC,MRSA NRS384 (USA300),≤ 1 µg/mL
same,MBC,MRSA NRS385 (USA500),2 µg/mL
same,MIC,MRSA NRS385 (USA500),≤ 1 µg/mL
same,MBC,MRSA NRS386 (USA700),≤ 1 µg/mL
same,MIC,MRSA NRS386 (USA700),≤ 1 µg/mL
same,MBC,MRSA NRS387 (USA800),2 µg/mL
same,MIC,MRSA NRS387 (USA800),2 µg/mL
same,Clostridium difficile inhibition,"[11]; Table 6, ATCC BAA 1801",1
same,Antibacterial activity,"[11]; Table 7, C. difficile ATCC BAA 1801",1
same,Clostridium difficile inhibition,[12],0.5
same,Clostridium difficile inhibition,"[1]; Table 6, ATCC 43255",1
same,Antibacterial activity,[1],1
same,Clostridium difficile inhibition,"[2]; Table 6, P2",0.5
same,Antibacterial activity,[2],0.5
same,Clostridium difficile inhibition,"[3]; Table 6, P13",0.5
same,Antibacterial activity,[3],0.5
same,Clostridium difficile inhibition,"[4]; Table 6, P19",4
same,Antibacterial activity,[4],1
same,Clostridium difficile inhibition,"[5]; Table 6, P30",0.5
same,Antibacterial activity,[5],1
same,Clostridium difficile inhibition,"[6]; Table 6, I6",1
same,Antibacterial activity,[6],0.25
same,Clostridium difficile inhibition,"[7]; Table 6, I9",2
same,Antibacterial activity,[7],1
Colistin [reference compound],MIC,[13],≤1 µg/mL
same,MIC,[14],≤1 µg/mL
same,MIC,[15],≤1 µg/mL
